Where two headings read alike, the source gives them in different places.
Assays:
[1] = test system: melanoma; experiment: Clinical trial: tumor response to DDP alone, then TAM/DDP after DDP resistance; assay type: in vivo, human (patients)
Excerpt: A complete response was defined as the complete disappearance of all evidence of disease for at least 4 weeks. A partial response was a decrease in the mean diameter of the target lesion by 50% or more lasting at least 4 weeks. A mixed response was a decrease in the diameter of some target lesions of 50% or more while others remained stable or increased in size. A stable disease was defined as a <50% decrease or <25% increase in the size of target lesions for at least 2 months without the growth or appearance of other lesions. A progressive disease was defined as an increase in the size of target lesions by 25% or more.
Patients were retreated every 3 weeks. […] Subsequent patients received an ondansetron-based regimen.

[2] = test system: T-289 melanoma cells; experiment: Development of DDP resistance with or without TAM, T-289 (colony formation); assay type: cell-based, human
[3] = test system: UM-SCC-10B head and neck carcinoma cells; experiment: Development of cisplatin resistance with or without tamoxifen, UM-SCC-10B (clonogenic assay); assay type: cell-based, human; details: for effect on development of cisplatin resistance: tamoxifen present during selection, in words
Procedure: (§1) The UM-SCC-10B and UM-SCC-5 cell lines were derived from human squamous cell carcinomas of the in head and neck region. Cells were cultured at 37° C. in humidified 5% CO2 in 150 cm^2 flasks (Corning, Corning, N.Y.) with RPMI 1640 medium (Mediatech Inc., Herndon, Va.) containing 10% fetal bovine serum (Gemini Bioproducts Inc., Calabasas, Calif.), 2 mM L-glutamine, 100 units/ml of penicillin and 100 μg/ml of streptomycin sulfate. The sensitivity of the UM-SCC-10B and UM-SCC-5 cell lines and their cDDP-resistant variants to cDDP, TAM and the combination of both agents was tested by colony forming assay. Single-cell suspension were plated into 60 mm tissue culture dishes (Corning) at 300 cells per dish. Following drug exposure, the cultures were washed twice with PBS to remove cDDP, 5 ml of fresh medium was added, and they were incubated for 13-15 days to allow formation of colonies. Colonies were fixed with methanol, stained with Giemsa stain for 60 minutes, and counted manually.
(§2) Cells were cultured in drug-free medium for two weeks prior to being tested for drug sensitivity.

[4] = test system: UM-SCC-5 head and neck carcinoma cells; experiment: Development of cisplatin resistance with or without tamoxifen, UM-SCC-5 (clonogenic assay); assay type: cell-based, human
Procedure: as §1, §2

[5] = test system: UM-SCC-10B cells; experiment: Colony forming assay, parental UM-SCC-10B; assay type: cell-based, human
Procedure: (§3) The UM-SCC-10B and UM-SCC-5 cell lines were derived from human squamous cell carcinomas of the in head and neck region. […] The sensitivity of the UM-SCC-10B and UM-SCC-5 cell lines and their cDDP-resistant variants to cDDP, TAM and the combination of both agents was tested by colony forming assay. Single-cell suspension were plated into 60 mm tissue culture dishes (Corning) at 300 cells per dish. […] Colonies were fixed with methanol, stained with Giemsa stain for 60 minutes, and counted manually.
(§4) Median effect analysis was used to assess the interaction between cDDP and TAM using a schedule of one hour exposure to cDDP and continuous exposure to TAM. After seeding the cells into 60 mm tissue culture dishes at 300 cells per dish in fresh medium and allowing 5 hours for them to attach, TAM was added. For the combined treatment, cDDP was added to the dishes 24 hours after seeding the cells. […] After incubation the dishes were washed twice with phosphate-buffered saline and fresh medium containing the appropriate concentration of TAM was added. In synergy experiments, dose-response curves for the single agents were initially generated. The extend of the combined treatment was then analyzed by the isobole method for a combination of cDDP and TAM from the equation

[6] = test system: UM-SCC-5 cells; experiment: Colony forming assay, parental UM-SCC-5; assay type: cell-based, human
Procedure: as §3, §4

[7] = human, in vivo
Excerpt: (§5) Entry requirements included histologically documented melanoma, measurable disease, signed informed consent, and no anti-tumor therapy during the previous 4 weeks. Patients were required to have normal hematologic and renal function, an ECOG performance status of 0-2 and an estimated survival of at least 3 months. Patients with a previous history of deep venous thrombosis or pulmonary embolism were excluded.
(§6) Pre-treatment hydration consisted of 1 liter of 5% dextrose/0.45%saline containing 20 mEq of potassium chloride and 2 g magnesium sulfate administered over 4 hours. […] Patients were retreated every 3 weeks. On cycles where TAM was administered, 40 mg p.o. four doses per day were given on day 1 followed by 20 mg p.o. daily thereafter. The initial 7 patients were treated with a combination of lorazepam, metaclopramide, benadryl and dexamethasone to control nausea and vomiting. Subsequent patients received an ondansetron-based regimen.

[8] = Steady-state plasma concentration of TAM; assay type: in vivo, human (patients); details: predicted from in vitro data
Procedure: The design of the study of Example 1 itself was biased against response and the response rate in other settings would be higher. […] Chronic administration of TAM at 10 mg p.o. twice a day produces steady-state plasma concentrations in the range of 0.29 μM. However, the in vitro data predicts that plasma concentrations of more than 0.5 μM will be necessary in DDP-resistant patients.

[9] = test system: cell lines of human origin; experiment: Synergy of TAM and DDP: timing and mechanism observations; assay type: cell-based
[10] = test system: melanoma; details: 203 treated melanoma patients; cited from earlier work
[11] = Toxicities with DDP or DDP/TAM treatment (clinical trial); details: in words
Excerpt: as §5, §6

[12] = number of patients, DDP n=24, TAM/DDP n=20
[13] = read-out: IC50, one hour exposure to cisplatin
[14] = Homo sapiens, read-out: IC50, continuous tamoxifen exposure

With `N.N.[Cl][Pt][Cl]` [cisplatin, cis-diamminedichloroplatinum (II)] the “duration of complete response” value ([1]; DDP alone) was “more than 15 months”, the “duration of partial response (stable off treatment)” value ([1]; DDP alone, one patient) was ≥ 6 months and the “time to progression of patient with partial response” value ([1]; DDP alone, the other patient) was 4 months. The “Mixed Response” value ([1]; number of patients) was 0 patients, the “Progressive Disease” value ([1]; number of patients) was 19 patients and the “Stable Disease” value ([1]; number of patients) was 2 patients. For the same compound, the “Complete Response” value [1, 12] was 1 patients, the “Partial Response” value [1, 12] was 2 patients and the “Complete Response” value ([1]; number of patients, DDP n=24, TAM/DDP n=20, listed as DDP) was “One”. For the same compound, the “Progressive Disease” value ([1]; number of patients, listed as DDP) was 17 patients, the “Complete Response (%)” value ([1]; percent of patients) was 4% and the “Partial Response (%)” value ([1]; percent of patients) was 8%. For the same compound, the “time at which DDP resistance became apparent” value ([2]; T-289 selection) was 200 days, the IC50 ([3]; UM-SCC-10B selected in cisplatin, one hour cisplatin exposure, read-out: IC50 after the fifteenth selection) was 40.1 ± 1.2 µM and the IC50 ([4]; UM-SCC-5 selected in cisplatin, one hour cisplatin exposure, read-out: IC50 after the fifteenth selection) was 20.1 ± 1.2 µM. The IC50 [5, 13] was 6.5 ± 0.6 µM and the IC50 [6, 13] was 7.2 ± 1.5 µM.

In the case of `Cc1nccn1CC1CCc2c(c3ccccc3n2C)C1=O` (centres unmarked) [ondonsetron, ondansetron], the nausea and vomiting [7] is reported as “markedly reduced nausea and vomiting”.

In the case of `CC/C(=C(\c1ccccc1)c1ccc(OCCN(C)C)cc1)c1ccccc1` [tamoxifen], the “plasma concentration predicted necessary in DDP-resistant patients” value [8] is reported as “more than 0.5 μM”, the “effect on development of DDP resistance” value ([2]; T-289, TAM given concurrently, in words) is reported as “delay the development of DDP resistance” and the “reduction of slope of regression line by tamoxifen” value ([3]; UM-SCC-10B) is reported as “more than 40%”. The “effect on development of cisplatin resistance” value ([3]; UM-SCC-10B) was “delayed the emergence of cisplatin resistance significantly”, the “effect on development of cisplatin resistance” value ([3]; UM-SCC-10B, listed as TAM) was “delay the development of DDP resistance” and the “effect on slope for emergence of cisplatin resistance” value ([4]; UM-SCC-5, tamoxifen present during selection, in words) was “no effect”. For the same compound, the IC50 [5, 14] was 3.56 ± 0.41 µM, the IC50 [6, 14] was 3.22 ± 0.54 µM and the “synergy with DDP when TAM is added after DDP” value ([9]; TAM added up to 48 hours after end of 1 hour DDP exposure) was “can produce synergy with DDP”. The “effect of tamoxifen on known mechanisms of cisplatin resistance” value ([9]; drug uptake, glutathione or metallothionein levels, DNA intrastrand adduct formation or repair) was “not due to an effect of tamoxifen on the known mechanisms of cisplatin resistance”, the “response rate, single agent TAM therapy” value [10] was 6% and the nephrotoxicity [11] was “uncommon and unaffected by the administration of TAM”. For the same compound, the “toxicity on addition of TAM to single agent DDP” value [11] was “No increased toxicity” and the nausea and vomiting ([11]; during hospitalization for ondansetron) was “did not increase nausea or vomiting”.

Reference: patent publication US5844001A, “Combination platinum chemotherapeutic/antiestrogen therapy for human cancers” (Research Development Foundation, priority 1994, dated 1998)
